Measurements from publication PMC6132687, “Stem cells are the most sensitive screening tool to identify toxicity of GATA4-targeted novel small-molecule compounds” (Archives of Toxicology, 2018).

Key:
[1] = test system: primary neonatal rat ventricular cardiomyocytes (NRVCs); assay: MTT assay in NRVCs; format: cell-based; conditions: 24 h
Method: (§1) The cells were exposed to the test compounds for 24 h and cytotoxicity was quantified with MTT and LDH assays as described previously (Talman et al. [2011]). For the determination of cell membrane integrity, 50 µl of medium from each well was transferred onto a new 96-well plate followed by addition of 50 µl of substrate solution containing 1.3 mM β-nicotinamide adenine dinucleotide, 660 µM iodonitrotetrazolium, 54 mM L(+)-lactic acid, 280 µM phenazine methosulphate and 0.2 M Tris–HCl (pH 8.0). After a 30-min incubation, the reaction was stopped by adding 50 µl of 1 M acetic acid to each well and absorbance was measured at 490 nm using Victor2 plate reader (PerkinElmer, Turku, Finland). Spontaneous LDH release was measured from untreated cells, maximal LDH release from cells lysed with 0.9% Triton X-100 and background absorbance was measured from wells without cells. After background extraction, cytotoxicity was calculated as follows: cytotoxicity (%) = [(sample − spontaneous LDH release)/(maximal LDH release − spontaneous LDH release)] × 100. For quantification of metabolic activity, 3-(4,5-dimethylthiazol-2-yl)-2,5-diphenyltetrazolium bromide (MTT) was added to the cells at a final concentration of 0.5 mg/ml followed by 2 h incubation in cell culture conditions. […] Absorbance was measured at 550 nm and absorbance at 650 nm was subtracted as background. […]

MEFs = assay: MTT assay in MEFs; format: cell-based, mouse; conditions: 24 h, 30 µM, not statistically significant
Method: as §1

[2] = test system: stretch-induced cardiomyocyte hypertrophy; design: method as in Välimäki et al. [2017]; conditions: ref Välimäki et al. [2017]; cited from earlier work
[3] = test system: GATA4–NKX2-5 transcriptional synergy; design: method as in Välimäki et al. [2017]; conditions: ref Välimäki et al. [2017]; cited from earlier work
cardiac function = test system: cardiac function; design: method as in Kinnunen et al. [2018]; conditions: after myocardial infarction or angiotensin II-induced cardiac hypertrophy; ref Kinnunen et al. [2018]; cited from earlier work

SMILES: CCN(CC)c1ccc(NC(=O)c2c(C)noc2-c2cc(C)on2)cc1 [3i-1047]
- increase in metabolic activity in NRVCs [1]: not observed

SMILES: CCC(=O)N(Cc1ccc(N(CC)CC)cc1)c1c(-c2ccccc2)noc1C [3i-1120]
- toxicity in MEFs (MEFs): modest toxicity

SMILES: CCN(CC)c1ccc(NC(=O)c2c(-c3ccccc3)noc2C)cc1 [3i-1000]
- stretch-induced cardiomyocyte hypertrophy [2]: attenuates
- GATA4-induced synergistic transactivation of a promoter sequence containing NKX2-5 binding sites [3]: inhibits
- cardiac function (cardiac function): improves cardiac function
